In article PMC5384453, “A multi-functional PEGylated gold(III) compound: potent anti-cancer properties and self-assembly into nanostructures for drug co-delivery” (Chemical Science, 2016):

How the values were obtained:
[1] = system: HCT116 xenografts; test: In vivo inhibition of tumor growth in nude mice bearing HCT116 xenograft; conditions: for reduction of tumor volume / reduction of tumor weight: n = 8
Source text: The anti-tumor experiments using mice were approved by the animal ethics committees of Jinan University and The University of Hong Kong.
Significant pulmonary hemorrhage in the alveoli and a thickening of alveolar walls were found. Also, apoptotic hepatocytes and swollen renal epithelial cells were found, leading to subsequent shrinkage of kidney tubules. […] The lower systemic toxicity of 1 can be explained by the lower accumulation of 1 in the organs of mice treated at its effective dosage, as compared to that of 3 and Au1a (Fig. S23 ^†). […] This can be attributable to the nanostructures of 1, which may lead to in vivo tumor accumulation by the EPR effect.[55] […]
atmosphere of 5% CO2. […]
right fore of BALB/c nude mice. When the tumor volume reached 70 mm3 after […]
every 2 days for 24 days. The control group received equal volume of PBS only.
During the treatment period, the tumor volume and body weight of the nude mice were measured per two days. The tumor volume was calculated by the equation:
Volume (mm3) = l×w2/2, where l and w were the length and width of the tumor. At the end of the treatment, the nude mice were sacrificed and the tumor weight was […]
H&E staining and immunohistochemical (IHC) analysis of mice tissues. For histological and immunohistochemical analysis, the tissues were fixed with 3.7% formaldehyde, embedded with paraffin and sectioned. Subsequently, the tissues were stained with hematoxylin and eosin for histological observation under an optical microscope (magnification: 10×). The expression of p53, Ki67, VEGFR2 and TUNEL was determined by IHC methods as reported previously. S7
Hematological analysis of nude mice bearing HCT116 xenograft. The blood samples of mice without bearing HCT116 xenograft and xenograft-bearing mice treated with 1, 3 and PBS control were collected. The plasma was obtained by centrifuging the blood sample with speed at 3000 rpm. The plasma was then subjected to hematological analysis to determine biochemical indexes of alanine aminotransferase (ALT), asparatate aminotransferase (AST), globulin (GLB), blood urea nitrogen (BUN), uric acid (UA), creatinine (CREA), lactate dehydrogenase (LDH) and creatine kinase (CK) in blood of the mice. […]

[2] = system: NCM460 cells; test: FITC-Annexin V staining and flow cytometry; type: cell-based, human; conditions: NCM460, 2 μM, 24 h
Method: (§1) The induction of apoptosis of HCT116 and NCM460 cells by 1 was further studied using FITC-Annexin V staining. […] The quantity of apoptotic cells stained by FITC-Annexin V after treatment with 1 or Au1a was also investigated by flow cytometry. […]
(§2) with gold(III) complexes and FITC-annexin V staining. HCT116 (1×10 5 cells) and […]
(§3) annexin-binding buffer solution. The cells were then incubated with FITC-annexin V […]
(§4) at room temperature in dark for 15 min. The solution was then removed, and the cells were washed with annexin-binding buffer solution. Fluorescence images were then […]
(§5) in ice and analyzed by flow cytometry immediately. […]
(§6) staining and flow cytometry.

[3] = system: HCT116 cells; test: FITC-Annexin V staining and flow cytometry; type: cell-based, human; conditions: HCT116, 2 μM, 24 h
Method: as §1, §2, §3, §4, §5, §6

[4] = Release of hydrolyzed gold(III) porphyrin moiety in aqueous buffer solutions (dialysis, ICP-MS); type: physicochemical; conditions: for hydrolyzed product found: sodium acetate buffer pH 4, 37 °C
Method: The rate of the release of the gold(III) porphyrin moiety from the conjugates in aqueous buffer solutions at different pH values was determined according to the reported methodology.[24],[26],[27] Nanostructures of 1 and 2 were dissolved in PBS or sodium acetate buffer (pH 4.0) and then dialyzed against a large volume of PBS or sodium acetate buffer solution in the dark at 37 °C using a 1000 Da cut-off dialysis membrane (details are included in the ESI ^†). The quantity of the hydrolyzed gold(III) porphyrin moiety at different time points was determined by inductively coupled plasma mass spectrometry (ICP-MS; Fig. 2a). In PBS, 31% and 60% of 1 were hydrolyzed at 6 and 24 h, respectively, while only 2% and 3% of hydrolyzed product of 2 were found at 5 and 24 h, and more than 89% of 2 remained unhydrolyzed at 96 h. […] Faster release was also found upon incubation of 2 in pH 4 buffer solution compared to that in PBS, but the amount was still much smaller than that found in the study of 1. As the only difference between 1 and 2 is the chemical structure of the linkage for PEG conjugation, the faster release of the gold(III) porphyrin moiety from 1 in PBS than that from 2 should be attributed to the higher tendency of the ester bond in 1 to undergo hydrolytic cleavage than the amide bond in 2.[52] […]
Study on the release of hydrolyzed product from 1 and 2 in aqueous buffer solutions by ICP-MS. The nanostructures of gold(III) complex was dissolved in PBS solution (pH 7.4; 1 mg/mL) or sodium acetate buffer solution (pH 4.0; 1 mg/mL) and was dialyzed against 1 L of the buffer solution at 37 °C using semipermeable minidialysis tubes (molecular weight cut-off = 1,000 Da; GE Healthcare). At a predetermined time, an aliquot of solution was removed and dissolved in HNO3/HCl solution mixture (9:1, v/v; volume of aliquot: volume of acid mixture = 1:3). The solution mixture was heated at 65 °C with shaking overnight, and the gold content was determined by ICP-MS from three independent aliquots. […]

[5] = 4 mg kg^–1, intravenous injection every two days for 24 days
[6] = 2 mg kg^–1, intravenous injection every two days for 24 days

Compound | reduction of tumor volume [1, 5] | reduction of tumor weight [1, 5] | percent of apoptotic cells (FITC-Annexin V, background corrected) [2] | percent of apoptotic cells (FITC-Annexin V, background corrected) [3] | hydrolyzed (release of gold(III) porphyrin moiety) ([4]; PBS, 37 °C, 24 h) | other results
COC(=O)c1ccc(C2=C3C=CC(=N3)C(c3ccccc3)=c3ccc4[n]3[Au+][n]3c(ccc32)C(c2ccccc2)=C2C=CC(=N2)C=4c2ccccc2)cc1.[Cl-] [Compound 3, [Au(TPP–COOCH3)]^+] | 56% | 49% | – | – | – | –
[Au(TPP–COO–PEG5000–OCH3)]Cl [Compound 1] | 58% | 53% | 2.4% | 22.5% | 60% | reduction of tumor volume [1, 6]: 41%; reduction of tumor weight [1, 6]: 35%; nuclear atypia and mitosis in tumor sections (immunohistochemical analysis) ([1]; 4 mg kg^–1 i.v., 24 days): Effective elimination of nuclear atypia and mitosis were observed; hydrolyzed (release of gold(III) porphyrin moiety) ([4]; PBS, 37 °C, 6 h): 31%; hydrolyzed product found ([4]; 6 h): 60%; hydrolyzed product found ([4]; 24 h): 96%
[Au(TPP–CONH–PEG5000–OCH3)]Cl [Compound 2] | – | – | – | – | 3% | hydrolyzed (release of gold(III) porphyrin moiety) ([4]; PBS, 37 °C, 5 h): 2%; remained unhydrolyzed ([4]; PBS, 37 °C, 96 h): more than 89%
C1=Cc2nc1c(-c1ccccc1)c1ccc([n-]1)c(-c1ccccc1)c1nc(c(-c3ccccc3)c3ccc([n-]3)c2-c2ccccc2)C=C1.[Au+3].[Cl-] [Au1a, [Au(TPP)]Cl, reference compound] | – | – | 39.3% | 39.6% | – | –
